≈ marks a conversion by molar mass, not a printed value.
B1: TMPKh (human TMPK) (Homo sapiens) (protein)
chain: MAARRGALIVLEGVDRAGKSTQSRKLVEALCAAGHRAELLRFPERSTEIGKLLSSYLQKKSDVEDHSVHLLFSANRWEQVPLIKEKLSQGVTLVVDRYAFSGVAFTGAKENFSLDWCKQPDVGLPKPDLVLFLQLQLADAAKRGAFGHERYENGAFQERALRCFHQLMKDTTLNWKMVDASKSIEAVHEDIRVLSEDAIRTATEKPLGELWK

The molecules below were run against TMPKmt (M. tuberculosis TMPK) (Mycobacterium tuberculosis, UniProt P9WKE1) (assay: biochemical). Conditions: not given.
Assay type: biochemical

TMPKmt (M. tuberculosis TMPK), sequence (P9WKE1 whole entry, looked up): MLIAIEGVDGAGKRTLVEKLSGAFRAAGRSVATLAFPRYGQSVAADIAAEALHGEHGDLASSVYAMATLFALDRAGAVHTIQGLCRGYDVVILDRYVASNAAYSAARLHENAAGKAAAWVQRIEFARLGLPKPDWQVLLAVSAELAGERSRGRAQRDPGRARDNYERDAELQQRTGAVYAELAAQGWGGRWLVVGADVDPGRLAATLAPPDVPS

Molecule	Ki [µM]
Cc1cn(Cc2ccc(CC(F)CC(=O)O)cc2)c(=O)[nH]c1=O (stereo not drawn) [Compound 65, 3-Fluoro-4-[4-(5-Methyl-2,4-dioxo-3,4-dihydro-2H-pyrimidin-1-yl-methyl)-phenyl]-butyric acid]	63
O=C(O)CCCCCc1ccc(Cn2cc(Cl)c(=O)[nH]c2=O)cc1 [Compound 59, 6-[4-(5-Chloro-2,4-dioxo-3,4-dihydro-2H-pyrimidin-1-yl-methyl)-phenyl]-hexanoic acid]	49
Cc1cn(Cc2ccc(CC(F)CC=O)cc2)c(=O)[nH]c1=O (stereo not drawn) [Compound 64, 3-Fluoro-4-[4-(5-methyl-2,4-dioxo-3,4-dihydro-2H-pyrimidin-1-yl-methyl)-phenyl]-butyraldehyde]	26
NC(=O)CCCCCc1ccc(Cn2cc(Cl)c(=O)[nH]c2=O)cc1 [Compound 62, 6-[4-(5-Chloro-2,4-dioxo-3,4-dihydro-2H-pyrimidin-1-yl-methyl)-phenyl]-hexanoic acid amide]	32

Same assay, conditions: pH 7.4; read-out: Ki

Molecule	Ki [µM]
Cc1cn(Cc2ccc(C#CCCCC(N)=O)cc2)c(=O)[nH]c1=O [Compound 53, 6-[4-(5-Methyl-2,4-dioxo-3,4-dihydro-2H-pyrimidin-1-yl-methyl)-phenyl]-hexyn-5-oic acid amide]	113
Cc1cn(Cc2ccc(CCCCC(=O)O)cc2)c(=O)[nH]c1=O [Compound 45, 5-[4-(5-Methyl-2,4-dioxo-3,4-dihydro-2H-pyrimidin-1-yl-methyl)-phenyl]-pentanoic acid]	72
COC(=O)CCCc1ccc(Cn2cc(C)c(=O)[nH]c2=O)cc1 [Compound 40a]	70
Cc1cn(Cc2ccc(C#CCCCC(=O)O)cc2)c(=O)[nH]c1=O [Compound 51, 6-[4-(5-Methyl-2,4-dioxo-3,4-dihydro-2H-pyrimidin-1-yl-methyl)-phenyl]-hexyn-5-oic acid]	119
Cc1cn(Cc2ccc(C#CCCO)cc2)c(=O)[nH]c1=O [Compound 30, 1-[4-(4-Hydroxy-but-1-ynyl)-benzyl]-5-methyl-1H-pyrimidine-2,4-dione]	86
Cc1cn(Cc2ccc(CCCCO)cc2)c(=O)[nH]c1=O [Compound 31, 1-[4-(4-Elydroxy-butyl)-benzyl]-5-methyl-1H-pyrimidine-2,4-dione]	63
O=C(O)CCCc1ccc(Cn2cc(Cl)c(=O)[nH]c2=O)cc1 [Compound 39]	15
Cc1cn(Cc2ccc(CCCCCC(N)=O)cc2)c(=O)[nH]c1=O [Compound 54, 6-[4-(5-Methyl-2,4-dioxo-3,4-dihydro-2H-pyrimidin-1-yl-methyl)-phenyl]-hexanoic acid amide]	33
NC(=O)CCCCCc1ccc(Cn2cc(Br)c(=O)[nH]c2=O)cc1 [Compound 61, 6-[4-(5-Bromo-2,4-dioxo-3,4-dihydro-2H-pyrimidin-1-yl-methyl)-phenyl]-hexanoic acid amide]	24
Cc1cn(Cc2ccc(CSCC(=O)O)cc2)c(=O)[nH]c1=O [Compound 63, 3-[4-(5-Methyl-2,4-dioxo-3,4-dihydro-2H-pyrimidin-1-ylmethyl)-benzylsulfanyl]-acetic acid]	15
Cc1cn(Cc2ccc(CCCC(N)=O)cc2)c(=O)[nH]c1=O [Compound 40b]	139
O=C(O)CCCCCc1ccc(Cn2cc(Br)c(=O)[nH]c2=O)cc1 [Compound 58, 6-[4-(5-Bromo-2,4-dioxo-3,4-dihydro-2H-pyrimidin-1-yl-methyl)-phenyl]-hexanoic acid]	42
O=C(O)CCCCc1ccc(Cn2cc(Br)c(=O)[nH]c2=O)cc1 [Compound 48, 5-[4-(5-Bromo-2,4-dioxo-3,4-dihydro-2H-pyrimidin-1-yl-methyl)-phenyl]-pentanoic acid]	47

Same assay, conditions: pH 7.4; read-out: TMPKmt W1002 Ki

Molecule	Ki [µM]
Cc1cn(Cc2ccc(CCC(N)=O)cc2)c(=O)[nH]c1=O [Compound 1, 3-[4-(5-Methyl-2,4-dioxo-3,4-dihydro-2H-pyrimidin-1-ylmethyl)-phenyl]-propionamide]	110
Cc1cn(Cc2ccc(CCC(=O)O)cc2)c(=O)[nH]c1=O [Compound 2, 3-[4-(5-Methyl-2,4-dioxo-3,4-dihydro-2H-pyrimidin-1-ylmethyl)-phenyl]-propionic acid]	68
Cc1cn(Cc2ccc(F)cc2)c(=O)[nH]c1=O [Compound 6, 5-Methyl-1-(4-fluoro-benzyl)-1H-pyrimidine-2,4-dione]	45
Cc1cn(Cc2ccc(F)c(F)c2)c(=O)[nH]c1=O [Compound 8, 5-Methyl-1-(3,4-difluoro-benzyl)-1H-pyrimidine-2,4-dione]	67
Cc1cn(Cc2ccc(CCCCCC(=O)O)cc2)c(=O)[nH]c1=O [Compound 22, 6-[4-(5-Methyl-2,4-dioxo-3,4-dihydro-2H-pyrimidin-1-yl-methyl)-phenyl]-hexanoic acid]	32
Cc1cn(Cc2ccc(C=CC(N)=O)cc2)c(=O)[nH]c1=O [Compound 14, 3-[4-(5-Methyl-2,4-dioxo-3,4-dihydro-2H-pyrimidin-1-ylmethyl)-phenyl]-acrylamide]	240
Cc1cn(Cc2ccccc2)c(=O)[nH]c1=O [Compound 3, 5-Methyl-1-Benzyl-1H-pyrimidine-2,4-dione]	75
Cc1cn(Cc2cccc(F)c2)c(=O)[nH]c1=O [Compound 7, 5-Methyl-1-(3-fluoro-benzyl)-1H-pyrimidine-2,4-dione]	90
O=c1[nH]c(=O)n(Cc2ccccc2)cc1Br [Compound 4, 5-Bromo-1-benzyl-1H-pyrimidine-2,4-dione]	44
Cc1cn(Cc2ccc(Br)cc2)c(=O)[nH]c1=O [Compound 11, 5-Methyl-1-(4-bromo-benzyl)-1H-pyrimidine-2,4-dione]	38
CCOC(=O)CCc1ccc(Cn2cc(C)c(=O)[nH]c2=O)cc1 [Compound 19, 3-[4-(5-Methyl-2,4-dioxo-3,4-dihydro-2H-pyrimidin-1-ylmethyl)-phenyl]-propionic acid ethyl ester]	265
Cc1cn(Cc2ccc(CCCC(=O)O)cc2)c(=O)[nH]c1=O [Compound 20, 4-[4-(5-Methyl-2,4-dioxo-3,4-dihydro-2H-pyrimidin-1-yl-methyl)-phenyl]-butyric acid]	16.5
N#Cc1cn(Cc2cccc(Cl)c2)c(=O)[nH]c1=O [Compound 13]	810
N#Cc1cn(Cc2ccccc2)c(=O)[nH]c1=O [Compound 12]	980
Cc1cn(Cc2cccc(Cl)c2)c(=O)[nH]c1=O [Compound 10, 5-Methyl-1-(3-chloro-benzyl)-1H-pyrimidine-2,4-dione]	44
Cc1cn(Cc2ccc(Cl)cc2)c(=O)[nH]c1=O [Compound 9, 5-Methyl-1-(4-chloro-benzyl)-1H-pyrimidine-2,4-dione]	50

What follows are molecules tested on Cc1cn([C@H]2C[C@H](O)[C@@H](COP(=O)(O)O)O2)c(=O)[nH]c1=O (assay: purified protein, by the assay type). Conditions: other: substrate Km; pH 7.4; 30.0 °C.

Molecule	Km [µM]
B1	5

These molecules were tested on Mycobacterium tuberculosis H37Ra (assay: IC50 on cultures of Mycobacterium tuberculosis H37Ra). Conditions: not given.
Assay type: cell-based
Source text: The IC50 value for three compounds has been measured on cultures of Mycobacterium tuberculosis H37Ra.

Molecule	IC50 [µg/mL]
O=C(O)CCCc1ccc(Cn2cc(Br)c(=O)[nH]c2=O)cc1 [Compound 21, 4-[5-Bromo-(2,4-dioxo-3,4-dihydro-2H-pyrimidin-1-ylmethyl)-phenyl]butyric acid]	50 (≈ 136 µM)
Cc1cn(Cc2ccc(CCCCCC(=O)O)cc2)c(=O)[nH]c1=O [Compound 22, 6-[4-(5-Methyl-2,4-dioxo-3,4-dihydro-2H-pyrimidin-1-yl-methyl)-phenyl]-hexanoic acid]	25 (≈ 75.7 µM)
Cc1cn(Cc2ccc(CCCC(=O)O)cc2)c(=O)[nH]c1=O [Compound 20, 4-[4-(5-Methyl-2,4-dioxo-3,4-dihydro-2H-pyrimidin-1-yl-methyl)-phenyl]-butyric acid]	100 (≈ 331 µM)

Tested on: Cc1cn([C@H]2C[C@H](O)[C@@H](COP(=O)(O)O)O2)c(=O)[nH]c1=O
Test: purified protein, by the assay type
Conditions: other: substrate Km; pH 7.4; 30.0 °C
Remark: another data set of the same source

Molecule	Km [µM]
TMPKmt (M. tuberculosis TMPK) (Mycobacterium tuberculosis H37Rv)	4.5

The molecules below were run on VERO cells (assay: cytotoxicity on VERO cells). Conditions: not given.
Assay type: cell-based
Protocol: Cytotoxicity: The molecule 22 has been tested for its cytotoxicity on VERO cells. It has been determined that no growth inhibition, and consequently no cytotoxic activity, could be detected up to a concentration of 250 μg/ml of compound 22.

Molecule	concentration up to which no growth inhibition / no cytotoxic activity could be detected [µg/mL]
Cc1cn(Cc2ccc(CCCCCC(=O)O)cc2)c(=O)[nH]c1=O [Compound 22, 6-[4-(5-Methyl-2,4-dioxo-3,4-dihydro-2H-pyrimidin-1-yl-methyl)-phenyl]-hexanoic acid]	> 250

Source: patent publication US20080096907A1, “Aryl, Pyrimidyl Compounds, Pharmaceutical Compositions Comprising them, Their Use as Antimicrobial Agents” (INSTITUT PASTEUR, priority 2004, published 2008)
